For this experiment, the target named is NANOLUC® luciferase (Oplophorus gracilirostris, UniProt Q9GV45, A31E/A60N/A81I/F95D/I117V/K70R/L54V/L99Q/M102K/N193R/P142E/Q151K/Q38R/Q45L/V71I/Y165I). Put plainly: Michaelis-Menten analysis of relative luminescence produced by NANOLUC luciferase at various concentrations of coelenterazine analogues. Type of experiment: biochemical. The note with it: 0.01 nM NANOLUC luciferase.

This is an account of results in US20250206747A1, “COELENTERAZINE ANALOGUES” (priority 2023, published 2025).

In general, Km refers to the concentration of substrate that gives half-maximal velocity.

Structures are written as SMILES.

NANOLUC® luciferase, sequence (Q9GV45 other isoform, or with tags, fused parts or gaps with the stated changes): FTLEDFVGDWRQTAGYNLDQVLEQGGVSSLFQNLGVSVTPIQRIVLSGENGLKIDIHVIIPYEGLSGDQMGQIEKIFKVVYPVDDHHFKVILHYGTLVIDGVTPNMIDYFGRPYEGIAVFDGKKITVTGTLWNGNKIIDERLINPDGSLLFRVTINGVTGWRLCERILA

For `O=c1c(Cc2ccco2)nc2c(-c3cnnc(Cl)c3)[nH]c(-c3cccc(F)c3)cn1-2` [Compound 10299], under “Table 1”, the Km is 0.15 µM.
For `COc1cccc(-c2cn3c(=O)c(Cc4ccco4)nc-3c(-c3cnnc(Cl)c3)[nH]2)c1` [Compound 10300], where the note is “Table 1”, the Km amounted to 0.27 µM.
Turning to `O=c1c(Cc2ccco2)nc2c(-c3cnnc(Cl)c3)[nH]c(-c3cccc(F)c3F)cn1-2` [Compound 10427, 8-(6-chloropyridazin-4-yl)-6-(2,3-difluorophenyl)-2-(furan-2-ylmethyl)imidazo[1,2-a]pyrazin-3(7H)-one], under “Table 2”, the Km came to 0.16 µM.
